By DC50 is commonly meant the concentration giving 50% degradation. For orientation: Emax means the size of the effect at its maximum, as opposed to the concentration needed. As a reminder, the Kd is the constant that tells how readily two partners part at equilibrium. The term IC50 denotes the concentration that inhibits the measured activity by half. A low value points to higher potency.

Activity calls are given as the source filed them. No cut-off for these calls is given here.

Data set [1] deals with T1, E3 ubiquitin-protein ligase RNF126/Serine/threonine-protein kinase RIO2 (Homo sapiens, UniProt Q9BVS4+Q9BV68). Nature of the data set: Molecular glue degradation activity at RNF126/RIOK2 in human MOLT-4 cells assessed as induction protein degradation incubated for 12 hrs by immunoblot analysis. In kind it is cell-based. A general note: Immunoblotting shows a protein as a band on a membrane.
Target sequence in this assay (Q9BVS4 whole entry): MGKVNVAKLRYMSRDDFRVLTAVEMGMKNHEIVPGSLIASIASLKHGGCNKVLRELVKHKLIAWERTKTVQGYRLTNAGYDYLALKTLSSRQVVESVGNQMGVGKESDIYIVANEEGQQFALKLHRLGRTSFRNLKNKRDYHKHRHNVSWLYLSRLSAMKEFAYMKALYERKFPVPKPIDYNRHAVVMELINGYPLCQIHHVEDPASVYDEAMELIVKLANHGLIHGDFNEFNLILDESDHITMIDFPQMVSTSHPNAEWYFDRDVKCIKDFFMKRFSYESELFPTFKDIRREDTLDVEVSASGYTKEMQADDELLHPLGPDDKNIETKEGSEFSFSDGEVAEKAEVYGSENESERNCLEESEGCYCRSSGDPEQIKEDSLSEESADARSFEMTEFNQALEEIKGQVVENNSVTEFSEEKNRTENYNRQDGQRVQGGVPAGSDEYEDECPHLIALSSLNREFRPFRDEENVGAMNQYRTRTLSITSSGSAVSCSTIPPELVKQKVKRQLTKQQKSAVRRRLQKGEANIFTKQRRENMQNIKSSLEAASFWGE
Target sequence in this assay (Q9BV68 whole entry): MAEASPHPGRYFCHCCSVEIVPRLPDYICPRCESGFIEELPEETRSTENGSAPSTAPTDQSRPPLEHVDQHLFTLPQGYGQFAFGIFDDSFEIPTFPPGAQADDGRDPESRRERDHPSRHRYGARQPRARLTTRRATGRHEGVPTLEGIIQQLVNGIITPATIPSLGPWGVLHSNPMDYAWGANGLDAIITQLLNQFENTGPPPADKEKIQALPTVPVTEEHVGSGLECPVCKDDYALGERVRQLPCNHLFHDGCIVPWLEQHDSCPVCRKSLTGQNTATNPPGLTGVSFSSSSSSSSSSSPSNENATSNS

Data set [2] addresses T1, E3 ubiquitin-protein ligase RNF126/Serine/threonine-protein kinase RIO2. As to the kind of experiment: Molecular glue degradation activity at RNF126/RIOK2 in human MOLT-4 cells assessed as induction protein degradation incubated for 12 hrs by immunoblot analysis relative to control. In kind it is cell-based.
Target sequence in this assay (Q9BV68 2-311 partner limits assumed): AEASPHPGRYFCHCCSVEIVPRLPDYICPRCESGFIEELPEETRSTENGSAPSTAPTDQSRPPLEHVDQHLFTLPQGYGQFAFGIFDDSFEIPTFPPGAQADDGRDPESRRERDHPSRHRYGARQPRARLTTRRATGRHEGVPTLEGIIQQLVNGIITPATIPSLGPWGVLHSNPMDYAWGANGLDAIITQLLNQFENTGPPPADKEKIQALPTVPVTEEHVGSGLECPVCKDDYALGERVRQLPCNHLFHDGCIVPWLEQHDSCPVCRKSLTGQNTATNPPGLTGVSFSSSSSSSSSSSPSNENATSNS
Target sequence in this assay (Q9BVS4 whole entry): as the sequence (Q9BVS4 whole entry) above
Data set [3] has as its target Serine/threonine-protein kinase RIO2 (Homo sapiens, UniProt Q9BVS4). As to the kind of experiment: Binding affinity to RIOK2 (unknown origin) assessed as dissociation constant.
Data set [4] concerns the target T1, E3 ubiquitin-protein ligase RNF126/Serine/threonine-protein kinase RIO2. Nature of the data set: Molecular glue degradation activity at RNF126/RIOK2 in human MOLT-4 cells assessed as decrease in AKT level at 500 nM incubated for 12 hrs by immunoblot analysis. In kind it is cell-based.
Target sequence in this assay (Q9BV68 2-311 partner limits assumed): as the sequence (Q9BV68 2-311 partner limits assumed) above
Target sequence in this assay (Q9BVS4 whole entry): as the sequence (Q9BVS4 whole entry) above
Data set [5] has as its system MOLT-4. Nature of the data set: Antiproliferative activity against human MOLT-4 cells incubated for 72 hrs by CCK8 assay. The conditions noted are these: MOLT-4, 72 h. In kind it is functional, cell-based. (In general: Tetrazolium assays rely on reduction of a dye to a coloured formazan, in cell work by metabolically active cells.)
Data set [6] can be described thus: Antiproliferative activity against HEK293 cells incubated for 72 hrs by CCK8 assay. In kind it is toxicity, cell-based. The conditions noted are these: human.
For another data set, the system named is K562. As to the kind of experiment: Antiproliferative activity against human K562 cells incubated for 72 hrs by CCK8 assay. As to conditions: K562, 72 h. In kind it is functional, cell-based.
The test system of the next data set is OCI-Ly3. Nature of the data set: Antiproliferative activity against human OCILY3 cells incubated for 72 hrs by CCK8 assay. In kind it is functional, cell-based. As to conditions: OCI-Ly3, 72 h.
The nature of data set [7]: Antiproliferative activity against human MRC5 cells incubated for 72 hrs by CCK8 assay. In kind it is toxicity, cell-based.
Data set [8] can be described thus: Antiproliferative activity against mouse NIH3T3 cells incubated for 72 hrs by CCK8 assay. In kind it is toxicity, cell-based.
Data set [9] concerns MOLT-4. Nature of the data set: Induction of apoptosis in human MOLT-4 cells at 900 nM incubated for 48 hrs by Annexin V-FITC/PI staining based flow cytometry relative to control. In kind it is functional. A general note: In flow cytometry, cells or beads pass a laser one at a time.
Another data set deals with ASPC1. Nature of the data set: Antiproliferative activity against human ASPC1 cells incubated for 72 hrs by CCK8 assay. In kind it is functional, cell-based. As to conditions: ASPC1, 72 h.
For another data set, the system named is U-937. As to the kind of experiment: Antiproliferative activity against human U-937 cells incubated for 72 hrs by CCK8 assay. In kind it is functional, cell-based. The conditions noted are these: U-937, 72 h.
For data set [10], the target named is T1, E3 ubiquitin-protein ligase RNF126/Serine/threonine-protein kinase RIO2. Nature of the data set: Molecular glue degradation activity at RNF126/RIOK2 in human MOLT-4 cells assessed as decrease in mTOR level at 500 nM incubated for 12 hrs by immunoblot analysis. In kind it is cell-based.
Target sequence in this assay (Q9BV68 2-311 partner limits assumed): as the sequence (Q9BV68 2-311 partner limits assumed) above
Target sequence in this assay (Q9BVS4 whole entry): as the sequence (Q9BVS4 whole entry) above
The test system of another data set is HL-60. Nature of the data set: Antiproliferative activity against human HL-60 cells incubated for 72 hrs by CCK8 assay. In kind it is functional, cell-based. As to conditions: HL-60, 72 h.
Another data set concerns A549. As to the kind of experiment: Antiproliferative activity against human A549 cells incubated for 72 hrs by CCK8 assay. In kind it is functional, cell-based. As to conditions: A549, 72 h.
The test system of the next data set is HeLa. As to the kind of experiment: Antiproliferative activity against human HeLa cells incubated for 72 hrs by CCK8 assay. In kind it is functional, cell-based.
For data set [11], the system named is MOLT-4. As to the kind of experiment: Induction of cell cycle arrest in human MOLT-4 cells assessed as accumulation at G2/M phase at 900 nM incubated for 24 hrs by PI staining based flow cytometry relative to control. In kind it is functional.

Serine/threonine-protein kinase RIO2, sequence (Q9BVS4 whole entry): as above

For `COc1ccc(/C=C/C(=O)N2CCN(c3ccc(-n4nnc5c(=O)[nH]c6ccc(-c7ccc(OC)nc7)cc6c54)cc3C(F)(F)F)CC2)cc1`, the DC50 in [1] was above 10000 nM.
In the case of `COc1ccc(-c2ccc3[nH]c(=O)c4nnn(-c5ccc(N6CCN(C(=O)/C=C/C(=O)c7ccc(F)c(F)c7)CC6)c(C(F)(F)F)c5)c4c3c2)cn1`, the DC50 in data set [1] worked out at 980 nM. Moreover, the Emax in [2] worked out at 77.3%.
For `COc1ccc(C(=O)/C=C/C(=O)N2CCN(c3ccc(-n4nnc5c(=O)[nH]c6ccc(-c7ccc(OC)nc7)cc6c54)cc3C(F)(F)F)CC2)cc1` the same measures were 690 nM and 60.1%.
For `COc1ccc(-c2ccc3[nH]c(=O)c4nnn(-c5ccc(N6CCN(C(=O)/C=C/C(=O)c7ccc(OC(F)(F)F)cc7)CC6)c(C(F)(F)F)c5)c4c3c2)cn1` the same measures were 1750 nM and 84.5%.
For `CCOc1ccc(C(=O)/C=C/C(=O)N2CCN(c3ccc(-n4nnc5c(=O)[nH]c6ccc(-c7ccc(OC)nc7)cc6c54)cc3C(F)(F)F)CC2)cc1` the same measures were 1280 nM and 70.6%.
Take `COc1ccc(-c2ccc3[nH]c(=O)c4nnn(-c5ccc(N6CCN(C(=O)/C=C/C(=O)c7ccc([N+](=O)[O-])cc7)CC6)c(C(F)(F)F)c5)c4c3c2)cn1`: the DC50 in data set [1] came to 3800 nM. Further, in data set [2], the Emax stood at 68.1%.
For `COc1ccc(-c2ccc3[nH]c(=O)c4nnn(-c5ccc(N6CCN(C(=O)C7=CCCC7)CC6)c(C(F)(F)F)c5)c4c3c2)cn1` the same measures were 2140 nM and 82.2%.
With `COc1ccc(-c2ccc3[nH]c(=O)c4nnn(-c5ccc(N6CCN(C(=O)/C=C/C(=O)c7ccc(Cl)cc7)CC6)c(C(F)(F)F)c5)c4c3c2)cn1`, the DC50 in [1] was 1540 nM. Besides, the Emax in data set [2] was found to be 75.1%.
Regarding `COc1ccc(-c2ccc3[nH]c(=O)c4nnn(-c5ccc(N6CCN(C(=O)/C=C/C(=O)c7ccccc7F)CC6)c(C(F)(F)F)c5)c4c3c2)cn1`, in data set [1], the DC50 was 3650 nM. For the same molecule, the Emax in data set [2] came to 62.8%.
For `COc1ccc(-c2ccc3[nH]c(=O)c4nnn(-c5ccc(N6CCN(C(=O)/C=C/C(=O)c7ccc(OC(F)F)cc7)CC6)c(C(F)(F)F)c5)c4c3c2)cn1` the same measures were 1180 nM and 68.9%.
For `COc1ccc(-c2ccc3[nH]c(=O)c4nnn(-c5ccc(N6CCN(C(=O)/C=C/C(=O)c7ccc(Br)cc7)CC6)c(C(F)(F)F)c5)c4c3c2)cn1` the same measures were 2180 nM and 70.1%.
For `COc1ccc(-c2ccc3[nH]c(=O)c4nnn(-c5ccc(N6CCN(C(=O)/C=C/C(=O)c7ccc(C)cc7)CC6)c(C(F)(F)F)c5)c4c3c2)cn1` the same measures were 1470 nM and 72.3%.
Consider `COc1cccc(C(=O)/C=C/C(=O)N2CCN(c3ccc(-n4nnc5c(=O)[nH]c6ccc(-c7ccc(OC)nc7)cc6c54)cc3C(F)(F)F)CC2)c1`, for which the DC50 in data set [1] was determined as 1050 nM. The Emax in [2] amounted to 68.4%.
With `COc1ccc2cc([C@H](C)C(=O)Nc3cc(C)ccn3)ccc2c1`, the Kd in [3] came to 520 nM.
As to `COc1ccc(-c2ccc3[nH]c(=O)c4nnn(-c5ccc(N6CCN(C(=O)/C=C/C(=O)c7ccccc7OC)CC6)c(C(F)(F)F)c5)c4c3c2)cn1`, the DC50 in data set [1] was found to be 790 nM. Besides, the Emax in data set [2] was found to be 74.1%.
Taken in the same sequence, the figures for `COc1ccc(-c2ccc3[nH]c(=O)c4nnn(-c5ccc(N6CCN(C(=O)/C=C/C(=O)c7ccc(OC)c(OC)c7)CC6)c(C(F)(F)F)c5)c4c3c2)cn1` were 1950 nM and 65%.
For `COc1ccc(-c2ccc3[nH]c(=O)c4nnn(-c5ccc(N6CCN(C(=O)/C=C/C(=O)c7ccccc7)CC6)c(C(F)(F)F)c5)c4c3c2)cn1` the same measures were 1100 nM and 82.2%.
Taken in the same sequence, the figures for `COc1ccc(-c2ccc3[nH]c(=O)c4nnn(-c5ccc(N6CCN(C(=O)/C=C/C(=O)c7ccc(C(F)(F)F)cc7)CC6)c(C(F)(F)F)c5)c4c3c2)cn1` were 1030 nM and 84.6%.
On to `COc1ccc(-c2ccc3[nH]c(=O)c4nnn(-c5ccc(N6CCN(C(=O)/C=C/C(=O)c7ccc(OC(C)C)cc7)CC6)c(C(F)(F)F)c5)c4c3c2)cn1`, for which, in data set [1], the DC50 stood at 1070 nM. The Emax in data set [2] was found to be 66.1%.
For `COc1ccc(-c2ccc3[nH]c(=O)c4nnn(-c5ccc(N6CCN(C(=O)CCC(=O)c7ccc(F)cc7)CC6)c(C(F)(F)F)c5)c4c3c2)cn1`, the DC50 in [1] was above 10000 nM.
`COc1ccc(-c2ccc3[nH]c(=O)c4nnn(-c5ccc(N6CCN(C(=O)/C=C/c7ccc(C(F)(F)F)cc7)CC6)c(C(F)(F)F)c5)c4c3c2)cn1`: the DC50 in [1] was above 10000 nM.
As for `COc1ccc(-c2ccc3[nH]c(=O)c4nnn(-c5ccc(N6CCNCC6)c(C(F)(F)F)c5)c4c3c2)cn1`, the outcome in data set [4] and in data set [10] was inactive. In addition, the IC50 in the data set with MOLT-4 [5] stood at 1260 nM; in the data set on K562, 2030 nM; with OCI-Ly3 it was 520 nM; in the data set with ASPC1, 2430 nM; in the data set on U-937, 1840 nM; in the data set on HL-60, 1210 nM. The half-maximal inhibitory concentration (IC50) in the data set on A549 worked out at 2550 nM; in the data set on HeLa it was 1230 nM. For the same molecule, the IC50 at 72 h came to 1940 nM in [6], 1310 nM in [7] and 2840 nM in data set [8]. Also, the results for the Activity in the data set with MOLT-4 [9] and with MOLT-4 [11] were 8.03% and 29.84%, respectively.
Turning to `C=CC(=O)N1CCN(c2ccc(-n3nnc4c(=O)[nH]c5ccc(-c6ccc(OC)nc6)cc5c43)cc2C(F)(F)F)CC1`, the DC50 in data set [1] stood at 4310 nM. The Emax in [2] is 81.4%.

The values above are taken from ChEMBL document CHEMBL6078724, “Discovery of the first examples of right open reading frame kinase 2 (RIOK2) molecular glue degraders” (Eur J Med Chem, 2025).
